Positions count from the first letter of the chain named.
Assays:
[1] = target: T1, semisynthetic p300 HAT (wt p300 HAT) (Homo sapiens, UniProt Q09472); details: 20 μM acetyl-CoA, 100 μM H4-15 peptide, 7 min pre-incubation, 30°C
T1 sequence (Q09472 1287-1663 limits assumed): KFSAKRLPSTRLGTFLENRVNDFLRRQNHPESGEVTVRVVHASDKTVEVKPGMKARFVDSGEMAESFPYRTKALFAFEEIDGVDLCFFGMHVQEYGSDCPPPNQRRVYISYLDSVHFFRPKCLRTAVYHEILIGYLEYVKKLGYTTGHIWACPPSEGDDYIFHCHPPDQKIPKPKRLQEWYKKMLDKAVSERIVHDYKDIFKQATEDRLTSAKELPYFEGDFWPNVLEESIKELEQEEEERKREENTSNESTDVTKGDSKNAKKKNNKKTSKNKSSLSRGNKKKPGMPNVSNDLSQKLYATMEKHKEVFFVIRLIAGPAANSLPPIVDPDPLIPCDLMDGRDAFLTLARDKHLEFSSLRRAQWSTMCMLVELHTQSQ

[2] = target: T2, D1625R/D1628R double mutant of p300 HAT (Homo sapiens, UniProt Q09472, D1625R/D1628R); experiment: p300 HAT radioactive acetyltransferase inhibition assay, double mutant enzyme
T2 sequence (Q09472 1287-1663 D1625R/D1628R limits assumed): T1 sequence (Q09472 1287-1663 limits assumed) with D339R, D342R

p300 HAT = p300 HAT inhibitor; cited from earlier work

CC(=O)N[C@@H](CCCCNC(=O)CSCCNC(=O)CCNC(=O)[C@H](O)C(C)(C)COP(=O)(O)OP(=O)(O)OC[C@H]1O[C@@H](n2cnc3c(N)ncnc32)[C@H](O)[C@@H]1OP(=O)(O)O)C(N)=O [Lys-CoA]
IC50 [1]: 60 nM | IC50 ([2]; D1625R, D1628R p300 HAT, 20 μM acetyl-CoA, 100 μM H4-15 peptide): 209 ± 15 nM | fold weakening of IC50 with D1625R/D1628R p300 HAT compared with wt p300 HAT ([2]; double mutant vs wt): 3.5 fold | Ki (p300 HAT): 20 nM

Source: publication PMC3076313 (Bioorganic chemistry, 2010)
